Mass density data for 1 molecule are collected here from the NIST ThermoML archive (doi:10.1016/j.jct.2010.04.003).

SMILES strings stand for the structures. ± gives the expanded uncertainty stated by the source.

For this data set the following is noted: 101.33 kPa, Liquid, Buoyancy - hydrostatic balance with magnetic suspension - one sinker.

For `CN(C)P(=O)(N(C)C)N(C)C` [tris(dimethylamino)phosphine oxide], the mass density (288.15 K) was 1028.54 ± 0.33 kg/m3; the mass density (293.15 K) worked out at 1024.33 ± 0.33 kg/m3; the mass density (298.15 K) was determined as 1020.03 ± 0.33 kg/m3; the mass density (303.15 K) is on record as 1015.86 ± 0.32 kg/m3; the mass density (308.15 K) is recorded as 1011.61 ± 0.32 kg/m3.
